Measurements published in the NIST ThermoML archive (doi:10.1007/s10765-008-0497-7).

Details: Liquid

CCn1cc[n+](C)c1.O=S(=O)([N-]S(=O)(=O)C(F)(F)F)C(F)(F)F
viscosity [mPa·s]
Details	298.15 K	323.15 K	343.15 K
100 kPa, Moving piston method	34.4	15.6	9.6
101.33 kPa, Cone and plate viscometry	34.1	–	–
101.33 kPa, Moving piston method	34.29	15.6	9.55
2820 kPa, Moving piston method	35	16.1	9.8
4190 kPa, Moving piston method	35.3	16.4	9.9
7360 kPa, Moving piston method	36.2	16.9	10.2
35560 kPa, Moving piston method	46.8	22	12.6
48760 kPa, Moving piston method	53.3	24.9	13.8
69300 kPa, Moving piston method	65	30.8	16
85200 kPa, Moving piston method	79.4	36.7	17.7
96500 kPa, Moving piston method	90	40.1	19.2
110550 kPa, Moving piston method	108.6	44.8	21.2
121530 kPa, Moving piston method	–	49.5	–
122430 kPa, Moving piston method	131.5	–	–
125530 kPa, Moving piston method	–	–	23.4

CCCCCCn1cc[n+](C)c1.F[B-](F)(F)F [1-hexyl-3-methylimidazolium tetrafluoroborate]
viscosity [mPa·s]
Details	Cone and plate viscometry	Moving piston method
298.15 K, 100 kPa	–	202
298.15 K, 101.33 kPa	210.4	202.4
298.15 K, 2640 kPa	–	209
298.15 K, 4290 kPa	–	213
298.15 K, 6950 kPa	–	215
298.15 K, 34590 kPa	–	299
298.15 K, 48400 kPa	–	387
298.15 K, 68140 kPa	–	478
298.15 K, 82970 kPa	–	532
298.15 K, 96820 kPa	–	621
298.15 K, 108550 kPa	–	743
298.15 K, 117850 kPa	–	819
323.15 K, 100 kPa	–	58.5
323.15 K, 101.33 kPa	–	58.5
323.15 K, 2600 kPa	–	59.7
323.15 K, 4130 kPa	–	61
323.15 K, 6850 kPa	–	62
323.15 K, 34520 kPa	–	79.9
323.15 K, 48180 kPa	–	91.1
323.15 K, 68990 kPa	–	108.2
323.15 K, 82710 kPa	–	121.8
323.15 K, 96550 kPa	–	136
323.15 K, 110120 kPa	–	152.4
323.15 K, 121810 kPa	–	165
343.15 K, 100 kPa	–	27
343.15 K, 101.33 kPa	–	27
343.15 K, 3100 kPa	–	27.6
343.15 K, 4100 kPa	–	27.5
343.15 K, 7100 kPa	–	28
343.15 K, 35100 kPa	–	35.2
343.15 K, 48340 kPa	–	39.2
343.15 K, 68140 kPa	–	45
343.15 K, 83080 kPa	–	49.9
343.15 K, 96550 kPa	–	55.1
343.15 K, 110120 kPa	–	60.8
343.15 K, 121810 kPa	–	65

CCCCCC[n+]1ccn(C)c1.O=S(=O)([N-]S(=O)(=O)C(F)(F)F)C(F)(F)F
viscosity [mPa·s]
Details	298.15 K	323.15 K	343.15 K
100 kPa, Moving piston method	70.96	24.9	14.07
101.33 kPa, Cone and plate viscometry	71.5	–	–
101.33 kPa, Moving piston method	71	24.9	14.1
2990 kPa, Moving piston method	71.04	25.81	14.12
4000 kPa, Moving piston method	71.38	25.98	14.22
7000 kPa, Moving piston method	73.71	26.87	14.6
35000 kPa, Moving piston method	103.4	35.96	18.62
50000 kPa, Moving piston method	122.2	41.57	21.1
70000 kPa, Moving piston method	152.2	50.43	25.17
83000 kPa, Moving piston method	173.2	56.96	28.12
93000 kPa, Moving piston method	196.3	62.11	30.42
110000 kPa, Moving piston method	237.6	71.6	34.65
124000 kPa, Moving piston method	275.7	80.46	38.34

CCCCCCCCCCn1cc[n+](C)c1.O=S(=O)([N-]S(=O)(=O)C(F)(F)F)C(F)(F)F
viscosity [mPa·s]
Details	298.15 K	323.15 K	343.15 K
100 kPa, Moving piston method	108.2	36.2	18.15
101.33 kPa, Cone and plate viscometry	111.2	–	–
101.33 kPa, Moving piston method	108.2	36.3	18.2
2950 kPa, Moving piston method	111.5	37.5	18.55
4270 kPa, Moving piston method	112.8	38.2	18.75
6900 kPa, Moving piston method	117.6	39.2	19.3
34600 kPa, Moving piston method	167.5	53.6	25.76
47960 kPa, Moving piston method	199	61.8	29.15
68870 kPa, Moving piston method	257	76	35.72
83290 kPa, Moving piston method	301.1	85.9	40.47
93030 kPa, Moving piston method	336.7	94.3	44.56
109800 kPa, Moving piston method	402.7	110.8	51.26
122570 kPa, Moving piston method	459.8	122.6	56.74

CCCCn1cc[n+](C)c1.F[P-](F)(F)(F)(F)F [1-butyl-3-methylimidazolium hexafluorophosphate]
298.15 K, Moving piston method
Details	viscosity [mPa·s]
100 kPa	270.9
3400 kPa	289.7
6900 kPa	305.7
12100 kPa	329.2
17200 kPa	353.7
24700 kPa	396.3
25700 kPa	398.2
41400 kPa	473.8
50600 kPa	543.4

CCCCCCn1cc[n+](C)c1.F[P-](F)(F)(F)(F)F [1-hexyl-3-methylimidazolium hexafluorophosphate]
viscosity [mPa·s]
Details	298.15 K	323.15 K	343.15 K
100 kPa, Moving piston method	481	121.4	48.1
101.33 kPa, Cone and plate viscometry	489.5	–	–
101.33 kPa, Moving piston method	481.4	121.4	48.1
2990 kPa, Moving piston method	523	–	–
4000 kPa, Moving piston method	530	127.1	50.3
7000 kPa, Moving piston method	556	–	–
7600 kPa, Moving piston method	–	132.4	52
22000 kPa, Moving piston method	701	–	–
25800 kPa, Moving piston method	–	164	62.6
35000 kPa, Moving piston method	833	182.6	68.6
42100 kPa, Moving piston method	920	–	–
50000 kPa, Moving piston method	1023	–	–
50600 kPa, Moving piston method	–	218.9	80.5
60300 kPa, Moving piston method	1176	241.7	88.1
76000 kPa, Moving piston method	–	280.8	102.5
93000 kPa, Moving piston method	–	334.2	118.7
101000 kPa, Moving piston method	–	364.2	127.1
126000 kPa, Moving piston method	–	483.1	157.8
